Assay results: US8410089B2, “Fused heterocyclic ring compound” (Takeda Pharmaceutical Company Limited, priority 2009, dated 2013)

Key:
male Wistar fatty rats = assay: Oral glucose tolerance test (OGTT), hypoglycemic action; assay type: in vivo, rat; details: 10 mg/kg oral
Method: A hypoglycemic action of the compound of the present invention was examined in an oral glucose tolerance test (OGTT) using male Wistar fatty rats (WF rat, TAKEDA RABICS).
First, 22-week-old WF rats fasted overnight were divided into groups (6 per group), and blood samples were collected and used as plasma samples before drug administration (−60 min). Thereafter, 0.5% methylcellulose (control group) and a test compound was orally administered at 10 mg/kg. At 60 min after compound administration, each individual was loaded by oral administration of glucose at 1 g/kg, and the blood was drawn before glucose loading (0 min) and 10, 30, 60 and 120 min after loading. The plasma glucose concentration was measured using L type Waco Glu2 (Wako) and Hitachi automatic analyzer 7080 (Hitachi Instruments Service Co., Ltd.). The 0-120 min area under time curve (AUC0-120min) and the decrease rate when the control group was 100% were calculated from the plasma glucose values measured.

human GPR119 = target: T1, human GPR119 (Homo sapiens, UniProt Q8TDV5); assay: Human GPR119 agonist activity with increase of intracellular cAMP concentration as index (CRE-luciferase reporter assay in hGPR119/CRE-luc/CHO(dhfr-) cells); assay type: cell-based; details: 1 μM test compound, 2 hr incubation; luciferase activity with 10 μM N-[4-(methylsulfonyl)phenyl]-5-nitro-6-{4-[4-(trifluoromethoxy)phenoxy]piperidin-1-yl}pyrimidin-4-amine = 100%, DMSO = 0%
T1 construct: expressed in transfected cells
T1 sequence (Q8TDV5 1-335): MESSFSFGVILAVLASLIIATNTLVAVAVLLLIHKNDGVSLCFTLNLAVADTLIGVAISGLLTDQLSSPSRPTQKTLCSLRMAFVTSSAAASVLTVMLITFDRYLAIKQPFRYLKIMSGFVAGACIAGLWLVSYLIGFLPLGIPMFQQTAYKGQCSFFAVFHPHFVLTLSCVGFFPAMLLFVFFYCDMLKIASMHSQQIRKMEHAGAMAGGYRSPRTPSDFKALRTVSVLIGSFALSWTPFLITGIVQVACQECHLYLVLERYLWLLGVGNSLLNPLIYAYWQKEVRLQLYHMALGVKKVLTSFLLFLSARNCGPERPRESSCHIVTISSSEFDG
Method: Evaluation of Human GPR119 Agonist Activity with Increase of Intracellular Camp Concentration as Index
(1) Construction of Expression Plasmid of Human GPR119 Gene
Using High Fidelity RNA PCR Kit (Takara Bio Inc.), human GPR119 gene was cloned by PCR using cDNA library synthesized from human brain mRNA (Clontech) as a template and synthetic DNA having the following sequence. Primer 1 and Primer 2 were is prepared by adding cleavage sites for Sal I and Nhe I based on the base sequence information of human GPR119 gene.
PCR was performed using Pyrobest DNA polymerase (Takara Bio Inc.). The obtained PCR product was cloned to pUC118 (Takara Bio Inc.), and the base sequence was […] and digested with restriction enzymes Sal I, Nhe I. The obtained DNA fragment was inserted into an animal cell expression vector pAKKO-111H (plasmid same as pAKKO-1.111H described in Biochem. Biophys. Acta, Hinuma, S. et al., 1219, 251-259 (1994)) similarly digested with Sal I, Nhe I, whereby an expression plasmid pAKKO-111H/hGPR119 was prepared.
(2) Construction of Reporter Plasmid
Zeocin resistance gene was cloned by PCR using plasmid pcDNA3.1/Zeo (Invitrogen) as a template, synthetic DNA having the following sequences wherein cleavage sites for restriction enzymes Sal I and BamH I are added to before and after a region containing SV40 Ori and a region containing SV40pA, which are located at the upstream and downstream of Zeocin resistance gene of this plasmid, as a primer set, and KOD polymerase (TOYOBO).
The obtained PCR product was inserted into pCR-BluntII (Invitrogen). A fragment containing a Zeocine resistance gene obtained by digesting the plasmid with restriction enzymes Sal I and BamH I was inserted into plasmid pGL3(R2.2)-Basic Vector (promega) similarly digested with Sal I and Bam HI to give Zeocin resistance plasmid pGL3(R2.2)/Zeocin-Basic Vector.
A reporter plasmid containing 4 cAMP responsive elements (CRE) connected in tandem was prepared using the following 5′-terminal phosphorylated synthetic DNA.
First, a DNA fragment containing a CRE sequence obtained by annealing CRE-Upper and CRE-Lower and elongating with KOD polymerase was inserted into pCR-BluntII to give pCR-BluntII-CRE. A fragment cleaved from pCR-BluntII-CRE with restriction enzymes Kpn I and Hind III was inserted into pGL3(R2.2)/Zeocin-Basic Vector similarly digested with Kpn I and Hind III to give reporter plasmid pGL3(R2.2)/Zeocin-CRE-luc.
(3) Introduction of Human GPR119 Gene and Reporter Gene into CHO(dhfr-) Cells and Acquirement of Expressing Cell
CHO(dhfr-) cells in MEMα (minimum essential medium alpha) (Nikken bio medical laboratory) medium containing 10% fetal bovine serum, 100 U/mL penicillin and 100 μg/mL streptomycin (Invitrogen) were detached by a treatment with trypsin-EDTA (ethylenediaminetetraacetic acid) (Invitrogen), the cells were washed with PBS (Phosphate-buffered saline), centrifuged (1000 rpm, 5 min) and suspended in PBS at a cell density of 1×10^7 cells/mL. Then, DNA was introduced into the cell by a gene pulser (Bio-Rad) under the following conditions. That is, 1×10^7 cells, plasmid pGL3(R2.2)/Zeocin-CRE-luc (15 μg), which was obtained in (2) and linearized with BssH II, and pAKKO-111H (5 μg) were added in a 0.4 cm gap cuvette, and the mixture was electroporated at voltage […], capacitance 950 μF. The cells were placed in the above-mentioned medium, cultured for 24 hr, and the cells were detached and centrifuged. The cells were diluted to 250 cells/well, plated in a 96 well plate (Corning) and cultivated in a CO2 incubator at 37° C. to give a transformant. Then, forskolin was added to the obtained transformant and a strain (CRE-luc/CHO(dhfr-) cell) that induces luciferase expression was selected. […]

GPR119 agonist activity (%) at 1 μM concentration (human GPR119): 79%
Structure (SMILES): CC(C)c1noc(N2CCC(Oc3cc(N4CCc5cc(S(C)(=O)=O)ccc54)ncn3)CC2)n1 [Example 38, 1-[6-({1-[3-(1-methylethyl)-1,2,4-oxadiazol-5-yl]piperidin-4-yl}oxy)pyrimidin-4-yl]-5-(methylsulfonyl)-2,3-dihydro-1H-indole]
blood glucose lowering rate (%) (male Wistar fatty rats; OGTT in WF rats, decrease rate of AUC0-120min with control group as 100%, **p ≦ 0.01 vs control): 24.8** %
plasma glucose AUC0-120 min (male Wistar fatty rats; 22-week-old WF rats fasted overnight, glucose 1 g/kg oral 60 min after compound, control group 32734.2): 24612.5 mg·min/dL
